Measured values: patent publication US7407794B2, “Biological control of plant diseases” (The Horticulture and Food Research Institute of New Zealand …, priority 2001, dated 2008)

System: Botrytis cinerea
Assay: Necrotic leaf disc bioassay with interrupted wet period (laboratory)
Format: cell-based
Details: Table 2, necrotic kiwifruit leaf tissues, repeat bioassay
Procedure: Discs (dia. 21 mm) were cut from mature unsprayed grape or kiwifruit leaves selected at random and placed between sheets of cardboard. The discs were gently dried at 40° C. for approximately 9 hours and then washed under running water for 10 minutes to remove any soluble nutrients. The leaf discs were then blot dried once more on sterile paper towels, dried at 40° C. for 6 hours, then sealed in plastic specimen jars, prior to sterilization by gamma-irradiation (4Mrad).
Isolates were maintained on oatmeal agar (30 g finely ground oatmeal plus 20 g agar per litre of water) and incubated for 2 to 4 weeks at 20° C. illuminated according to a 12 hours day/night cycle. Fungal propagules were washed from the sporulating agar plates using sterile 0.01% (v/v) TWEEN®80 (polyoxyethylenesorbitan monooleate) in distilled water. […]
High humidity incubation was interrupted by transferring the leaf disks from the humidity chambers to open petri dishes containing 2 layers of sterile dry (Whatman) filter disks. […] The area of leaf disk tissue with B. cinerea sporulation was assessed visually. […]
Prior to analysis of variance, all data were arcsin transformed using an angular transformation to stabilise the variance and LSD values were calculated for purposes of mean separation […]

CC(C)NC(=O)N1CC(=O)N(c2cc(Cl)cc(Cl)c2)C1=O [iprodione]
% coverage of necrotic leaf tissue by B. cinerea conidiophores: 20%
Antagonist efficacy, percentage reduction of B. cinerea conidiophores compared to the B. cinerea control treatment: 20%
